Ends that are not written are not given here.
System: trypsin
Test: Colloidal gold nanoparticle-based colorimetric assay for trypsin (hydrolytic cleavage of peptide substrate)
Assay type: biochemical
Settings: 1000 nM peptide substrate, trypsin 200 pM, 20° C.
Experimental: Based on the design criteria for the peptide substrate mentioned above, a sequence of amino acids in the peptide substrate of SEQ ID NO: 1 Lys-Lys-Gly-Phe-Pro-Arg-Gly-Gly-Asp-Cys was used in an assay method patterned after FIG. 1a. Unless noted otherwise, all incubations and reactions reported in the present specification were conducted at 20° C. The final reaction volume in all experiments described in the present specification, unless noted otherwise, was 500 microliters and the gold nanoparticle concentration was 1 nM. […] Thus, in all of the described experiments the aggregation state of any gold nanoparticle solution could be measured after 30 minutes or less. […] All of these can be evaluated using the present inventive assay methods. […]
After confirming that the peptide substrate SEQ ID NO: 1 Lys-Lys-Gly-Phe-Pro-Arg-Gly-Gly-Asp-Cys did induce the aggregation of negative surface charged gold nanoparticles, we carried out another experiment of examining the ultraviolet-visible spectra of solutions of colloidal gold nanoparticles after they were added to solutions of peptide substrates that had been pre-exposed for different time periods of from 0 minutes (min) to 60 min to trypsin. […] The absorbance spectrum shifts back to a maximum at 520 nm±5 nm, non-aggregated nanoparticles, as the pre-exposure time increases. […]

Sequence: KKGFPRGGDC [SEQ ID NO: 1, peptide substrate cleaved by trypsin; intact peptide aggregates negatively charged gold nanoparticles]
- time for complete hydrolytic cleavage of the peptide substrate by trypsin: more than 60 min
